Assay results taken from patent publication US8975235B2, “Lysophosphatidic acid receptor antagonists” (InterMune, Inc., priority 2011, dated 2015).

Assays:
Assay type in all cases: cell-based
Human LPA1 [1] = molecular target: T1, Human LPA1 (Homo sapiens, UniProt Q92633); test: Beta-Arrestin based assay for human LPA1R antagonists (PathHunter); parameters: host or cells: CHO; details: CHO cells stably expressing ProLink tagged human LPA1R; agonist LPA 0.5 micromolar
How it was run: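 CHO cells stably expressing ProLink-tagged human LPA1R with β-arrestin–EA fusion, assayed by β-galactosidase complementation. Antagonists tested against 0.5 micromolar LPA ([…]), in quadruplicate. End-point luminescence fitted to a 4-parameter logistic to give IC50.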

Human LPA3 = molecular target: T2, Human LPA3 (Homo sapiens, UniProt Q9UBY5); test: LPA3 calcium flux assay; details: human LPA3 expressing CHO cells; stimulated with 10 nM LPA; read-out: Ca Flux LPA3 IC50
T2 construct: The full-length cDNA fragment for human LPA3 is obtained by PCR from the vector; expressed in transfected cells; host or cells: CHO
T2 sequence (Q9UBY5 1-353): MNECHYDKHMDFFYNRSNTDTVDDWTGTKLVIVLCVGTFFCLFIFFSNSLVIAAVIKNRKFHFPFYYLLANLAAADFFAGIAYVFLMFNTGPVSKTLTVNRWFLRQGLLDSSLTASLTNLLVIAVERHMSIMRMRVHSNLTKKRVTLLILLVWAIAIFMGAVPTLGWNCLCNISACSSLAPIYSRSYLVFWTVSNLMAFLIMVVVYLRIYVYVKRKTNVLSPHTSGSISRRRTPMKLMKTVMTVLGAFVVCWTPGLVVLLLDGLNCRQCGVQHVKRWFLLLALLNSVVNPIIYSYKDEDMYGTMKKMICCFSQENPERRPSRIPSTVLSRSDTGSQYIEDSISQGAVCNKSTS
Method: Establishment of a CHO Cell Line Stably Expressing Human LPA3
A vector containing the human LPA3 receptor cDNA is obtained from the Missouri S&T cDNA Resource Center (www.cdna.org). The full-length cDNA fragment for human LPA3 is obtained by PCR from the vector. The nucleotide sequence of the cloned human LPA3 is determined by sequencing and is confirmed to be identical to the published human LPA3 sequence (NCBI accession number NM_012152). The cDNA is cloned into the pcDNA5 pcDNA5/FRT expression plasmid and is transfected in CHO cells using lipofectamine 2000 (Invitrogen Corp., USA). Clones stably expressing human LPA3 are selected using hygromycin and identified as cells that show Ca-influx in response to LPA.
(§1) LPA1 and LPA3 Calcium Flux Assays
(§2) Human LPA1 or LPA3 expressing CHO cells were seeded at 20,000-45,000 cells per well in a 96-well poly-D-lysine coated plate one or two days before the assay. Prior to the assay, the cells were washed once with PBS and then cultured in serum-free media overnight. On the day of the assay, a calcium indicator dye (Calcium 4, Molecular Devices) in assay buffer (HBSS with Ca^2+ and Mg^2+ and containing 20 mM Hepes and 0.3% fatty-acid free human serum albumin) was added to each well and incubation continued for 1 hour at 37° C. 10 μl of test compounds in 2.5% DMSO were added to the cells and incubation continued at room temperature for 30 minutes. Cells were then stimulated by the addition of 10 nM LPA and intracellular Ca^2+ measured using the Flexstation 3 (Molecular Devices). IC50s were determined using Graphpad prism analysis of drug titration curves.

Human LPA1 [2] = molecular target: T1, Human LPA1; test: LPA1 calcium flux assay; parameters: the full-length cDNA for human LPA1 is obtained by PCR of the reverse transcription reaction; expressed in transfected cells; host or cells: CHO; details: human LPA1 expressing CHO cells; stimulated with 10 nM LPA; read-out: Ca Flux LPA1 IC50
Method: Establishment of a CHO Cell Line Stably Expressing Human LPA1
A 1.1 kb cDNA encoding the human LPA1 receptor is cloned from human lung. Human lung RNA (Clontech Laboratories, Inc. USA) is reverse transcribed using the RETROscript kit (Ambion, Inc.) and the full-length cDNA for human LPA1 is obtained by PCR of the reverse transcription reaction. The nucleotide sequence of the cloned human LPA1 is determined by sequencing and is confirmed to be identical to the published human LPA1 sequence (An et al. Biochem. Biophys. Res. Commun. 231:619 (1997). The cDNA is cloned into the pcDNA5 pcDNA5/FRT expression plasmid and is transfected in CHO cells using lipofectamine 2000 (Invitrogen Corp., USA). Clones stably expressing human LPA1 are selected using hygromycin and identified as cells that show Ca-influx in response to LPA.
as §1, §2

T1 sequence (Q92633 whole entry, the tested form may be a part): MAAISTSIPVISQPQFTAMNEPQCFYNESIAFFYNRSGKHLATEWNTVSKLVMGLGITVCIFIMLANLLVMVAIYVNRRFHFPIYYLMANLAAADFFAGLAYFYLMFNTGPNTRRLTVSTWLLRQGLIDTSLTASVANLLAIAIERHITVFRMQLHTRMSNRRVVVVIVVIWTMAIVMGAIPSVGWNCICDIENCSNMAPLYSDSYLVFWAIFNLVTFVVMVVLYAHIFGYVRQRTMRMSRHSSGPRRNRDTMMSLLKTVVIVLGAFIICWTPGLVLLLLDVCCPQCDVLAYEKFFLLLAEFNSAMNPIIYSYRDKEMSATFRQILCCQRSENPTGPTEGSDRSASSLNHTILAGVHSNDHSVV

Compound	EC50 (Human LPA1 [1]) [nM]	IC50 (Human LPA3) [nM]	IC50 (Human LPA1 [2]) [nM]
Cc1noc(-c2ccc(-c3ccc(C(C(=O)O)c4ccccc4)cc3)cc2)c1NC(=O)O[C@H](C)c1ccccc1Cl (single isomer, unassigned) [Compound 14]	< 50	50 to 500	< 50
Cc1nsc(-c2ccc(-c3ccc(C(C(=O)O)c4ccccc4)cc3)cc2)c1NC(=O)O[C@H](C)c1ccccc1Cl (single isomer, unassigned) [Compound 70]	< 50		> 500
Cc1nsc(-c2ccc(-c3ccc(C(C(=O)O)c4ccccc4)cc3)cc2)c1NC(=O)O[C@H](C)c1ccccc1Cl (single isomer, unassigned) [Compound 71]	50 to 500		> 500
Cc1noc(-c2ccc(-c3ccc(CC(=O)O)c4ccccc34)cc2)c1NC(=O)O[C@H](C)c1ccccc1Cl [Compound 6]	< 50	50 to 500	50 to 500
Cc1noc(-c2ccc(-c3ccc(CC(=O)O)cc3)cc2)c1NS(=O)(=O)c1ccccc1 [Compound 19]	> 500		> 500
Cc1nsc(-c2ccc(-c3ccc(CC(=O)O)cc3)cc2)c1NC(=O)O[C@H](C)c1ccccc1Cl [Compound 20]	50 to 500	> 500	< 50
Cc1onc(-c2ccc(-c3ccc(C4(C(=O)O)CC4)cc3)cc2)c1NC(=O)O[C@H](C)c1ccccc1Cl [Compound 30]	< 50		< 50
Cc1nsc(-c2ccc(-c3ccc(C4(C(=O)O)CC4)cc3)cc2)c1NC(=O)O[C@H](C)c1ccccc1 [Compound 44]	< 50		< 50
Cc1nsc(-c2ccc(-c3ccc(C4(C(=O)O)CC4)cc3)cc2)c1NC(=O)OCc1ccccc1 [Compound 45]	< 50		< 50
Cc1nsc(-c2ccc(-c3ccc(C4(C(=O)O)CC4)cc3)cc2)c1NC(=O)OCc1ccccc1Cl [Compound 46]	50 to 500		50 to 500
Cc1snc(-c2ccc(-c3ccc(C4(C(=O)O)CC4)cc3)cc2)c1NC(=O)O[C@H](C)c1ccccc1Cl [Compound 56]	< 50		50 to 500
C[C@@H](OC(=O)Nc1c(-c2ccc(-c3ccc(C4(C(=O)O)CC4)cc3)cc2)oc2ccc(F)cc12)c1ccccc1Cl [Compound 60]	50 to 500		> 500
C[C@@H](OC(=O)Nc1c(-c2ccc(-c3ccc(C4(C(=O)O)CC4)cc3)cc2)oc2cc(F)ccc12)c1ccccc1Cl [Compound 61]	< 50		> 500
Cc1nnn(-c2ccc(-c3ccc(C4(C(=O)O)CC4)cc3)cc2)c1NC(=O)O[C@H](C)c1ccccc1Cl [Compound 64]	< 50		50 to 500
Cc1nnn(-c2ccc(-c3ccc(C4(C(=O)O)CC4)cc3)cc2)c1NC(=O)O[C@H](C)c1ccccc1 [Compound 65]	< 50	> 500	< 50
C[C@@H](OC(=O)Nc1ccnn1-c1ccc(-c2ccc(C3(C(=O)O)CC3)cc2)cc1)c1ccccc1Cl [Compound 67]	< 50		< 50
C[C@@H](OC(=O)Nc1ccn(-c2ccc(-c3ccc(C4(C(=O)O)CC4)cc3)cc2)n1)c1ccccc1Cl [Compound 68]	> 500		> 500
Cc1noc(-c2ccc(-c3ccc(C4(C(=O)O)CC4)cc3)cc2)c1NC(=O)O[C@H](C)c1ccccc1 [Compound 74]	< 50	> 500	< 50
Cc1noc(-c2ccc3c(c2)CCc2cc(CC(=O)O)ccc2-3)c1NC(=O)O[C@H](C)c1ccccc1Cl [Compound 78]	50 to 500		50 to 500
Cc1noc(-c2ccc(-c3ccc(C4CCOCC4C(=O)O)cc3)cc2)c1NC(=O)O[C@H](C)c1ccccc1Cl (some centres unmarked) [Compound 79]	< 50		50 to 500

Compound	EC50 (Human LPA1 [1]) [nM]	IC50 (Human LPA3) [nM]	IC50 (Human LPA1 [2]) [nM]
Cc1noc(-c2ccc(-c3ccc(C4(C(=O)O)COC4)cc3)cc2)c1NC(=O)O[C@H](C)c1ccccc1 [Compound 80]	< 50		50 to 500
Cc1nsc(C#Cc2ccc(C3(C(=O)O)CC3)cc2)c1NC(=O)O[C@H](C)c1ccccc1Cl [Compound 81]	< 50		< 50
Cc1nsc(C#Cc2ccc(C3(C(=O)O)CC3)cc2)c1NC(=O)O[C@H](C)c1ccccc1 [Compound 82]	50 to 500		> 500
Cc1nsc(-c2ccc(-c3ccc(C4(C(=O)O)CC4)cc3)cc2)c1NC(=O)O[C@H](C)c1ccccc1F [Compound 83]	< 50		50 to 500
Cc1ccccc1[C@@H](C)OC(=O)Nc1c(C)nsc1-c1ccc(-c2ccc(C3(C(=O)O)CC3)cc2)cc1 [Compound 86]	< 50		50 to 500
Cc1snc(-c2ccc(-c3ccc(C4(C(=O)O)CC4)cc3)cc2)c1NC(=O)O[C@H](C)c1ccccc1 [Compound 105]	< 50		< 50
C[C@@H](OC(=O)Nc1scnc1-c1ccc(-c2ccc(C3(C(=O)O)CC3)cc2)cc1)c1ccccc1Cl [Compound 107]	< 50		< 50
Cc1noc(-c2ccc3cc(C#CC4(C(=O)O)CC4)ccc3c2)c1NC(=O)O[C@H](C)c1ccccc1 [Compound 140]	< 50		< 50
C[C@@H](OC(=O)Nc1ocnc1-c1ccc(-c2ccc(C3(C(=O)O)CC3)cc2)cc1)c1ccccc1Cl [Compound 147]	< 50		50 to 500
C[C@@H](OC(=O)Nc1c(-c2ccc(-c3ccc(C4(C(=O)O)CC4)cc3)cc2)oc2cnccc12)c1ccccc1Cl [Compound 149]	< 50	> 500	50 to 500
C[C@@H](OC(=O)Nc1c(-c2ccc(-c3ccc(C4(C(=O)O)CC4)cc3)cc2)oc2ncccc12)c1ccccc1 [Compound 152]	< 50	50 to 500	50 to 500
C[C@@H](OC(=O)Nc1c(-c2ccc(-c3ccc(C4(C(=O)O)CC4)cc3)cc2)oc2ncccc12)c1ccccc1Cl [Compound 153]	< 50	> 500	> 500
Cc1nsc(-c2cc(Cl)c(-c3ccc(C4(C(=O)O)CC4)cc3)cc2F)c1NC(=O)O[C@H](C)c1ccccc1 [Compound 179]	< 50		50 to 500
Cc1nsc(-c2cc(F)c(-c3ccc(C4(C(=O)O)CC4)cc3)cc2F)c1NC(=O)O[C@H](C)c1ccccc1 [Compound 182]	< 50		< 50
Cc1nsc(-c2ccc(-c3ccc(C4(C(=O)O)CC4)cc3)c(F)c2)c1NC(=O)O[C@H](C)c1ccccc1 [Compound 185]	< 50		< 50
C[C@@H](OC(=O)Nc1c(-c2cc(F)c(-c3ccc(C4(C(=O)O)CC4)cc3)cc2F)cnn1C)c1ccccc1 [Compound 200]	< 50		50 to 500
C[C@@H](OC(=O)Nc1c(-c2cc(Cl)c(-c3ccc(C4(C(=O)O)CC4)cc3)cc2F)cnn1C)c1ccccc1 [Compound 201]	< 50		< 50
Cc1nsc(-c2ccc(-c3ccc(C4(C(=O)O)COC4)cc3)cc2)c1NC(=O)O[C@H](C)c1ccccc1 [Compound 241]	50 to 500		50 to 500
Cc1noc(-c2ccc(-c3ccc(C4(C(=O)O)CCOCC4)cc3)cc2)c1NC(=O)O[C@H](C)c1ccccc1 [Compound 242]	< 50		50 to 500
